Measurements published in ChEMBL document CHEMBL1144375, “Solid-phase synthesis of naphthylamidines as factor VIIa/tissue factor inhibitors” (Bioorg Med Chem Lett, 2005).

Experiments:
Prothrombin = Prothrombin (Homo sapiens, UniProt P00734); assay: Inhibition constant towards human thrombin
Coagulation factor X = Coagulation factor X (Homo sapiens, UniProt P00742); assay: Inhibition constant towards human coagulation factor X
Serine protease 1 = target: T1, Serine protease 1 (Bos taurus, UniProt P00760); assay: Inhibition constant towards bovine trypsin
T1 sequence (P00760 whole entry): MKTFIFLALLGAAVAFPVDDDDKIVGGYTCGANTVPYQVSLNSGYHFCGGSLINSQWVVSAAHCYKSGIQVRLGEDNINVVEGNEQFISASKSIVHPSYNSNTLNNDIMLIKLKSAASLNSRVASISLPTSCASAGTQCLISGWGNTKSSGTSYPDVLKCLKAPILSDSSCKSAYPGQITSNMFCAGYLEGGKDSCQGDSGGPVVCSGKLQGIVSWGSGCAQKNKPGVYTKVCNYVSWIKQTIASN

Coagulation factor VII = target: T2, Coagulation factor VII (Homo sapiens, UniProt P08709); assay: Inhibition constant towards human coagulation factor VII
T2 sequence (P08709 whole entry): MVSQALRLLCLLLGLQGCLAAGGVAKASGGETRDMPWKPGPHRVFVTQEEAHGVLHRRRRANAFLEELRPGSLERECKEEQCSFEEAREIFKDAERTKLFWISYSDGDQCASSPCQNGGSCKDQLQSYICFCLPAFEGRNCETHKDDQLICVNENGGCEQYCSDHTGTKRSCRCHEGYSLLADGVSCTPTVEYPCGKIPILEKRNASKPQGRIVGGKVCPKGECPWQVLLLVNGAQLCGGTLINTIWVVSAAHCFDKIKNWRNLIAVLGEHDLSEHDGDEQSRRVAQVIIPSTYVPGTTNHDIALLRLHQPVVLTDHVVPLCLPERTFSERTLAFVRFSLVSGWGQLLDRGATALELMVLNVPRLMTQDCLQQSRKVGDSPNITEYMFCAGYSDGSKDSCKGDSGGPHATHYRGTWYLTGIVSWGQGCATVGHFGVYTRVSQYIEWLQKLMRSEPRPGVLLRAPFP

Sequence of Coagulation factor X (P00742 41-179 limits assumed): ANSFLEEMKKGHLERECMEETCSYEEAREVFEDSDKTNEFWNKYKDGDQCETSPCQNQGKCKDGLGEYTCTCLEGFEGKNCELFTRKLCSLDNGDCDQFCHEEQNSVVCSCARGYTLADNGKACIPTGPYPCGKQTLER
Sequence of Coagulation factor X (P00742 235-488 limits assumed): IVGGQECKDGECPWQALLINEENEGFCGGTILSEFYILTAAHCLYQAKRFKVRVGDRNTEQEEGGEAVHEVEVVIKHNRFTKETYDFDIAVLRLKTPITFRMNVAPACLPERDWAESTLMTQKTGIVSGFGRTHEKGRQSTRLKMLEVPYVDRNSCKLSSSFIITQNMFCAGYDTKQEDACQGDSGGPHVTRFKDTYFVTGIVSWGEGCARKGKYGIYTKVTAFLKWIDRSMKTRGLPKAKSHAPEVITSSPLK

Compound | Ki (Prothrombin) | Ki (Coagulation factor X) | Ki (Serine protease 1) | Ki (Coagulation factor VII)
CC1CCCCN1CCCN(Cc1ccc2ccc(C(=N)N)cc2c1)C(=O)c1cccc2ccccc12 (configuration not stated) | > 5000 nM | 137 nM | 367 nM | 646 nM
N=C(N)c1ccc2ccc(CN(CCc3cnc[nH]3)C(=O)c3cccc4ccccc34)cc2c1 | > 5000 nM | 264 nM | 378 nM | 305 nM
N=C(N)c1ccc2ccc(CN(CCCN3CCOCC3)C(=O)c3cccc4ccccc34)cc2c1 | > 5000 nM | 442 nM | 378 nM | 121 nM
CC(C)CC(C(=O)O)N(Cc1ccc2ccc(C(=N)N)cc2c1)C(=O)c1cccc2ccccc12 (single isomer, unassigned) | > 5000 nM | > 5000 nM | 1610 nM | 1010 nM
COc1ccc(CCN(Cc2ccc3ccc(C(=N)N)cc3c2)C(=O)c2cccc3ccccc23)cc1OC | 2510 nM | 417 nM | 105 nM | 133 nM
CN1CCCC1CCN(Cc1ccc2ccc(C(=N)N)cc2c1)C(=O)c1cccc2ccccc12 (configuration not stated) | > 5000 nM | 111 nM | 433 nM | 142 nM
N=C(N)c1ccc2ccc(CN(CCC[n+]3cc[nH]c3)C(=O)c3cccc4ccccc34)cc2c1 | > 5000 nM | 731 nM | 752 nM | 282 nM
N=C(N)c1ccc2ccc(CN(CCc3ccccn3)C(=O)c3cccc4ccccc34)cc2c1 | 4760 nM | 104 nM | 299 nM | 195 nM

Compounds with a lower Ki (Prothrombin), results first:

Ki (Prothrombin) | Ki (Coagulation factor X) | Ki (Serine protease 1) | Ki (Coagulation factor VII) | Compound
1200 nM | 632 nM | 925 nM | 207 nM | N=C(N)c1ccc2ccc(CN(CCCc3ccccc3)C(=O)c3cccc4ccccc34)cc2c1
486 nM | 512 nM | 460 nM | 783 nM | CC(C)CCN(Cc1ccc2ccc(C(=N)N)cc2c1)C(=O)c1ccc2ccccc2c1
1160 nM | 262 nM | 698 nM | 93 nM | CC(C)CCN(Cc1ccc2ccc(C(=N)N)cc2c1)C(=O)c1cccc2ccccc12
500 nM | 136 nM | 500 nM | 1310 nM | CN1CCN(CCCN(Cc2ccc3ccc(C(=N)N)cc3c2)C(=O)c2cccc3ccccc23)CC1
1680 nM | 40 nM | 501 nM | 194 nM | N=C(N)c1ccc2ccc(CN(CCc3ccc(F)cc3)C(=O)c3cccc4ccccc34)cc2c1
